{"source": "patent US20240018161A1", "about": "“MODULATORS OF CYSTIC FIBROSIS TRANSMEMBRANE CONDUCTANCE REGULATOR” (VERTEX PHARMACEUTICALS INCORPORATED, priority 2020, published 2024)", "key": {"[1]": {"conditions": "from 3-[[4-[(1-benzylpiperazin-2-yl)methoxy]-6-(2,6-dimethylphenyl)pyrimidin-2-yl]sulfamoyl]benzoic acid (Dihydrochloride salt); amide bond; 14-membered ring; HATU/DIEA; DMF; 12.7 mM; 25.0 °C; 3 steps"}, "[2]": {"molecular_target": "T1, CFTR-mediated short-circuit current in F508del/MF-HBE cells (Homo sapiens, UniProt P13569, DEL508-508)", "T1 construct": "human bronchial epithelial (HBE) cells derived from CF subjects; endogenous in cells; host or cells: primary human bronchial epithelial cells from CF subjects (F508del/MF-HBE)", "T1 sequence (P13569 with tags, fused parts or gaps DEL508-508)": "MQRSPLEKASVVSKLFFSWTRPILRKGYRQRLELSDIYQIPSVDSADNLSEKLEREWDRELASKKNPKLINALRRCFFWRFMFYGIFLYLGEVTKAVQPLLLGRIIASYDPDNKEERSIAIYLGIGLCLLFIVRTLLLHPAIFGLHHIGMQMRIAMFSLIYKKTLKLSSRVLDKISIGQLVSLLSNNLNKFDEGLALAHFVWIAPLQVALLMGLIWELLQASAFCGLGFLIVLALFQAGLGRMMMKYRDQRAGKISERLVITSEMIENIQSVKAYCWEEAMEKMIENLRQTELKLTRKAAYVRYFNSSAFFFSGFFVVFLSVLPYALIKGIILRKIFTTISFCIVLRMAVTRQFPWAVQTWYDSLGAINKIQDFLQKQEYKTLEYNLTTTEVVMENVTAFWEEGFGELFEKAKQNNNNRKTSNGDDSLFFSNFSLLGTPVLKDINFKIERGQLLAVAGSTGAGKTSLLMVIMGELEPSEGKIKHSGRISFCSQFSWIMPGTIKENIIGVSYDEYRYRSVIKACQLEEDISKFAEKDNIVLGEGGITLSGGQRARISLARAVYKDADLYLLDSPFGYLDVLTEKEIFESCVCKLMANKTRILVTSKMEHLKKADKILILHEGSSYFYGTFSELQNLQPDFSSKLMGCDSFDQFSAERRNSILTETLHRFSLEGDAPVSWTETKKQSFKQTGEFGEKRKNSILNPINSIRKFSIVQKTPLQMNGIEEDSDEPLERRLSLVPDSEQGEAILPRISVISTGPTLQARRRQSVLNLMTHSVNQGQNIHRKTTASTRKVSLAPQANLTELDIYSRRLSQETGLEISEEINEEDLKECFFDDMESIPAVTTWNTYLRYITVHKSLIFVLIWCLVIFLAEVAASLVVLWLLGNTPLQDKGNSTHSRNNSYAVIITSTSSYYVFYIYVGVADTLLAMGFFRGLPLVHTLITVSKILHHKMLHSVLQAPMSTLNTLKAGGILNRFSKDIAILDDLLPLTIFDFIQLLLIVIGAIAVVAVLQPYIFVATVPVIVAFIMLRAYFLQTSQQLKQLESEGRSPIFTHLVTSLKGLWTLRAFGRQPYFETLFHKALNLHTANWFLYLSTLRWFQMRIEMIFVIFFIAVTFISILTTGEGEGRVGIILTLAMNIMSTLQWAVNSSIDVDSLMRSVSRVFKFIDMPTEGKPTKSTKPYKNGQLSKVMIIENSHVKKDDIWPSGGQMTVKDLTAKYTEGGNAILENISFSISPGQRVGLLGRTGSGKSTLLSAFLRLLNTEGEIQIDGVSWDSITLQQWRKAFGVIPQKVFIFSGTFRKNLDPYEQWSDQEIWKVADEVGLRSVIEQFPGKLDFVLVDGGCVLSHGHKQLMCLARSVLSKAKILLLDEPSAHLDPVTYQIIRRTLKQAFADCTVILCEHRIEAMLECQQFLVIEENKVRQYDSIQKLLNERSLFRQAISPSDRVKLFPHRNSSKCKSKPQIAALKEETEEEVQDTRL", "test": "HBE assay: Ussing chamber assay of CFTR-mediated short-circuit currents", "type": "cell-based", "conditions": "for EC50: read-out: HBE EC50; for Emax: read-out: HBE Max Activity (%)", "procedure": "(§1) 1. Ussing Chamber Assay of CFTR-Mediated Short-Circuit Currents\n(§2) Ussing chamber experiments were performed using human bronchial epithelial (HBE) cells derived from CF subjects heterozygous for F508del and a minimal function CFTR mutation (F508del/MF-HBE) and cultured as previously described (Neuberger T, Burton B, Clark H, Van Goor F Methods Mol Biol 2011:741:39-54). After four days the apical media was removed, and the cells were grown at an air liquid interface for >14 days prior to use.\n(§3) To isolate the CFTR-mediated short-circuit (ISC) current, F508del/MF-HBE grown on Costar® Snapwell™ cell culture inserts were mounted in an Ussing chamber and the transepithelial ISC was measured under voltage-clamp recording conditions (Vhold=0 mV) at 37° C. The basolateral solution contained (in mM) 145 NaCl, 0.83 K2HPO4, 3.3 KH2PO4, 1.2 MgCl2, 1.2 CaCl2), 10 Glucose, 10 HEPES (pH adjusted to 7.4 with NaOH) and the apical solution contained (in mM) 145 NaGluconate, 1.2 MgCl2, 1.2 CaCl2, 10 glucose, 10 HEPES (pH adjusted to 7.4 with NaOH) and 30 μM amiloride to block the epithelial sodium channel. Forskolin (20 μM) was added to the apical surface to activate CFTR, followed by apical addition of a CFTR inhibitor cocktail consisting of BPO, GlyH-101, and CFTR inhibitor 172 (each at 20 μM final assay concentration) to specifically isolate CFTR currents. The CFTR-mediated ISC (μA/cm^2) for each condition was determined from the peak forskolin response to the steady-state current following inhibition.\n(§4) 2. Identification of Corrector Compounds\n(§5) The activity of the CFTR corrector compounds on the CFTR-mediated ISC was determined in Ussing chamber studies as described above. The F508del/MF-HBE cell cultures were either incubated with the corrector compounds at a range of concentrations in combination with 1 μM Ivacaftor or were incubated with the corrector compounds at a single fixed concentration of 10 μM in combination with 1 μM Ivacaftor for 18-24 hours at 37° C. and in the presence of 20% human serum. The concentration of corrector compounds with 1 μM Ivacaftor during the 18-24 hours incubations was kept constant throughout the Ussing chamber measurement of the CFTR-mediated ISC to ensure compounds were present throughout the entire experiment.\nas §3, with “CaCl2,” for “CaCl2),”"}, "[3]": {"molecular_target": "T1, CFTR-mediated short-circuit current in F508del/MF-HBE cells", "test": "HBE2 assay: Ussing chamber assay of CFTR-mediated short-circuit currents", "type": "cell-based", "procedure": "as §1, §2\nas §3, with “CaCl2,” for “CaCl2),”\nas §4\nas §5, with “44 nM (6R,12R)-17-amino-12-methyl-6,15-bis(trifluoromethyl)-13,19-dioxa-3,4,18-triazatricyclo[12.3.1.12,5]nonadeca-1(18),2,4,14,16-pentaen-6-ol” for “1 μM Ivacaftor”, “1 and 3” for “10”, “[…]” for “20%”"}, "[4]": {"conditions": "F508del/MF-HBE, 18-24 hours with 1 μM Ivacaftor, 20% human serum, compared to known Vertex corrector with Tezacaftor and Ivacaftor"}, "[5]": {"conditions": "F508del/MF-HBE, 18-24 hours with 1 μM Ivacaftor, 20% human serum"}}, "data": [{"smiles": "Cc1cccc(C)c1-c1cc2nc(n1)NS(=O)(=O)c1cccc(c1)C(=O)N1CCNC(CO2)C1", "note": "(stereo not drawn)", "values": [{"measurement": "ring closure, crude yield", "setting": "[1]", "value": 22, "unit": "%"}]}, {"smiles": "Cc1cccc(C)c1-c1cc2nc(n1)NS(=O)(=O)c1cccc(c1)C(=O)N1[C@@H](c3cccc(N(C)C4CC5(CC5)C4)n3)CC[C@@H](C(C)C)[C@H]1CO2", "note": "(single isomer, unassigned) [Compound 391, 13-(2,6-dimethylphenyl)-7-isopropyl-4-[6-[methyl(spiro[2.3]hexan-5-yl)amino]-2-pyridyl]-17,17-dioxo-10-oxa-17λ^6-thia-3,14,16,23-tetrazatetracyclo[16.3.1.111,15.03,8]tricosa-1(21),11,13,15(23),18(22),19-hexaen-2-one]", "values": [{"measurement": "HBE Activity at 10 μM (%)", "setting": "[2]", "value": "++ (++ is 30-60%)"}]}, {"smiles": "Cc1cccc(C)c1-c1cc2nc(n1)NS(=O)(=O)c1cccc(c1)C(=O)N1[C@@H](c3ncc(OC(C)C)cn3)CC[C@@H](CC(C)C)[C@H]1CO2", "note": "(single isomer, unassigned) [Compound 392, 13-(2,6-dimethylphenyl)-7-isobutyl-4-(5-isopropoxypyrimidin-2-yl)-17,17-dioxo-10-oxa-17λ^6-thia-3,14,16,23-tetrazatetracyclo[16.3.1.111,15.03,8]tricosa-1(21),11,13,15(23),18(22),19-hexaen-2-one]", "values": [{"measurement": "HBE Activity at 10 μM (%)", "setting": "[2]", "value": "++ (++ is 30-60%)"}]}, {"smiles": "Cc1cccc(C)c1-c1cc2nc(n1)NS(=O)(=O)c1cccc(c1)C(=O)N1[C@@H](c3ncc(OC(C)C)cn3)CC[C@@H](CC(C)C)[C@H]1CO2", "note": "(single isomer, unassigned) [Compound 393, 13-(2,6-dimethylphenyl)-7-isobutyl-4-(5-isopropoxypyrimidin-2-yl)-17,17-dioxo-10-oxa-17λ^6-thia-3,14,16,23-tetrazatetracyclo[16.3.1.111,15.03,8]tricosa-1(21),11,13,15(23),18(22),19-hexaen-2-one]", "values": [{"measurement": "HBE Activity at 10 μM (%)", "setting": "[2]", "value": "+++ (+++ is >60%)"}, {"measurement": "activation at 3 µM", "setting": "[3]", "value": "> 60", "unit": "%"}]}, {"smiles": "Cc1cccc(C)c1-c1cc2nc(n1)NS(=O)(=O)c1cccc(c1)C(=O)N1[C@H](CCC[C@@H]1c1ccccn1)CO2", "note": "[Compound 327]", "values": [{"measurement": "HBE Max activity (%)", "setting": "[2]; [4]", "value": "++ (++ is 30-60%)"}, {"measurement": "EC50", "setting": "[2]; [5]", "value": "3 to 30", "unit": "µM"}]}, {"smiles": "Cc1cccc(C)c1-c1cc2nc(n1)NS(=O)(=O)c1cccc(c1)C(=O)N1[C@H](CCC[C@@H]1c1ccccn1)CO2", "note": "[Compound 328]", "values": [{"measurement": "Emax", "setting": "[2]; [4]", "value": "30 to 60", "unit": "%"}, {"measurement": "EC50", "setting": "[2]; [5]", "value": "1 to 3", "unit": "µM"}]}, {"smiles": "Cc1cccc(C)c1-c1cc2nc(n1)NS(=O)(=O)c1cccc(c1)C(=O)N1C(c3ncc(OC(C)C)cn3)CCC(C(C)C)C1CO2", "note": "(stereo not drawn) [Compound 371]", "values": [{"measurement": "Emax", "setting": "[2]; [4]", "value": "> 60", "unit": "%"}, {"measurement": "EC50", "setting": "[2]; [5]", "value": "< 1", "unit": "µM"}]}, {"smiles": "Cc1cccc(C)c1-c1cc2nc(n1)NS(=O)(=O)c1cccc(c1)C(=O)N1C(c3ncc(OC(C)C)cn3)CCC(CC(C)C)C1CO2", "note": "(stereo not drawn) [Compound 414]", "values": [{"measurement": "HBE Activity at 10 μM (%)", "setting": "[2]", "value": "+++ (+++ is >60%)"}]}]}
